The text below walks through data of patent US11390616B2 (BRISTOL-MYERS SQUIBB COMPANY, priority 2015, dated 2022).

The target of this assay is T1, human APJ receptor (Homo sapiens, UniProt P35414).
T1 construct: expressed in transfected cells; host or cells: HEK293
T1 sequence (P35414 1-380): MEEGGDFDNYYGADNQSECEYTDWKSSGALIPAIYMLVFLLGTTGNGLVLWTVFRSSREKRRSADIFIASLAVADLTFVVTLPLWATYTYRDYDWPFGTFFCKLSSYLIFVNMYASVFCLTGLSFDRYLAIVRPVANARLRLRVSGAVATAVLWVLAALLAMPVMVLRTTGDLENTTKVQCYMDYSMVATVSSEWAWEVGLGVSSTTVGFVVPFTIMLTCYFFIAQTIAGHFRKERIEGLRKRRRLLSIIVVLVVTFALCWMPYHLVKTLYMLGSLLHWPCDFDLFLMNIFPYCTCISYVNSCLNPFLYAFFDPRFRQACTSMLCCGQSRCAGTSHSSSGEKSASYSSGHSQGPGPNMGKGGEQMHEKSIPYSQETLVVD
Put plainly: Intracellular cAMP accumulation assay (APJ hcAMP, HTRF). Conditions: HEK293 cells stably expressing human APJ receptor; inhibition of forskolin-mediated cAMP production; read-out: APJ cAMP Potency range. In kind it is cell-based. An outline of the steps:
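HEK293 cells stably expressing the receptor (5,000/well) treated with compound plus […] and 2 μM forskolin for 30 min at room temperature; cAMP by HTRF against a cAMP standard curve. EC50 from variable-slope sigmoidal fit; Ymax as % of (Pyr1)apelin-13 inhibition.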
For orientation: Cyclic AMP is a second messenger, typically raised through Gs and lowered through Gi signalling.

For `CCCCc1nc(O)c(Cc2ccc(-c3csnn3)cc2)c(=O)n1-c1c(OC)cccc1OC` [Example 12, 2-butyl-3-(2,6-dimethoxyphenyl)-6-hydroxy-5-{[4-(1,2,3-thiadiazol-4-yl)phenyl]methyl}-3,4-dihydropyrimidin-4-one], the EC50 fell in the range of 0.01 to 10 nM. As to `COc1cccc(OC)c1-n1c(COC2CCC2)nc(O)c(Cc2ccc(-n3ccccc3=O)cc2)c1=O` [Example 39, 2-(cyclobutoxymethyl)-3-(2,6-dimethoxyphenyl)-6-hydroxy-5-{[4-(2-oxo-1,2-dihydropyridin-1-yl)phenyl]methyl}-3,4-dihydropyrimidin-4-one], the EC50 fell in the range of 0.01 to 10 nM. Then `CCCCc1nc(O)c(Cc2csc(-c3ccc(C)cc3)n2)c(=O)n1-c1c(OC)cccc1OC` [Example 23, 2-butyl-3-(2,6-dimethoxyphenyl)-6-hydroxy-5-{[2-(4-methylphenyl)-1,3-thiazol-4-yl]methyl}-3,4-dihydropyrimidin-4-one], with 10 to 100 nM. For `CCCCc1nc(O)c(Cc2csc(-c3ccc(Cl)cc3)n2)c(=O)n1-c1c(OC)cccc1OC` [Example 22, 2-butyl-5-{[2-(4-chlorophenyl)-1,3-thiazol-4-yl]methyl}-3-(2,6-dimethoxyphenyl)-6-hydroxy-3,4-dihydropyrimidin-4-one] the value was 10 to 100 nM. Then `CCCCc1nc(O)c(Cc2ccc(NC(C)=O)cc2)c(=O)n1-c1c(OC)cccc1OC` [Example 9, N-(4-{[2-butyl-1-(2,6-dimethoxyphenyl)-4-hydroxy-6-oxo-1,6-dihydropyrimidin-5-yl]methyl}phenyl)acetamide], with 10 to 100 nM.
